The record followed here is PMC8348070, “Structure-Based Designing, Solvent Less Synthesis of 1,2,3,4-Tetrahydropyrimidine-5-carboxylate Derivatives: A Combined In Vitro and In Silico Screening Approach” (Molecules, 2021).

Molecules are shown by their SMILES. ≈ marks a conversion by molar mass, not a printed value.

In general, IC50 refers to the concentration that gives 50% inhibition. What is called melting point is the temperature of the solid-liquid transition.

A short description of data set [1]: MTT cytotoxicity (cell viability) assay. Particulars: human, HepG2 cell line, 48 h, Figure 6. Type of data set: cell-based, human. On the procedure:
(§1) Cells were treated with extracts/compound dissolved in DMSO with a final DMSO concentration of 0.05%. DMSO treated cells were used as control in all the experiments. Cell viability was determined by MTT assay as described by us previously. Briefly, HepG2 cells were treated with different concentrations of compounds for 48 h. […] Subsequently, 150 μL DMSO was added to dissolve formazan crystals and absorbance was measured at 490 nm in a microplate reader (Thermo Scientific, Waltham, MA, USA). The percentage of cell viability was calculated.

Data set [2] in a line: Antioxidant free radical scavenging activity using DPPH. The conditions noted are these: Figure 7 and text. The class given is biochemical.
Method: The potential of synthesized compounds to scavenge the free radicals were assessed by using diphenylpicrylhydrazyl (DPPH) as free radical [48].
These stock solutions were then subjected to prepare their dilutions up to 250 µg, 200 µg, 150 µg, 100 µg, 50 µg and 25 µg respectively. DPPH solution of 4% was prepared by mixing 0.004 g of DPPH in 100 ml methanol (commercial grade). Ascorbic acid was used as control and its solution was prepared by mixing 0.0017612 g into 100 ml of water having 100 µg concentration.
In test tubes 1 mL of sample from each diluted solution and 2 mL of DPPH solution was added. In the same way, 1 mL of the ascorbic acid was added along with 2 ml of DPPH as control and allowed to stand overnight.
The test system of a further data set is HepG2 cells. The data set can be described thus: MTT cytotoxicity (cell viability) assay. Type of data set: cell-based, human. Particulars: Homo sapiens, HepG2, read-out: IC50 as anti-cancer agents. The method, then: as §1

Turning to `CCOC(=O)C1=C(C)NC(=O)NC1c1ccccc1F` (stereo not drawn) [Compound 5a, 4-(2-fluorophenyl)-6-methyl-2oxo-1,2,3,4-tetrahydropyrimidine-5-carboxylate], the melting point lay within 230 to 233 °C. In data set [1], this compound displayed an IC50 at 48 h of 16 µg/mL (≈ 57.5 µM).

`CCOC(=O)C1=C(C)NC(=O)NC1c1cccc(F)c1` (stereo not drawn) [Compound 5b, ethyl 4-(3-fluorophenyl)-6-methyl-2oxo-1,2,3,4-tetrahydropyrimidine-5-carboxylate] displayed a melting point of 210 to 213 °C. In data set [1] (HepG2 cells), half-maximal inhibition (IC50 at 48 h) was put at 11.3 µg/mL (≈ 40.5 µM).

In the case of `CCOC(=O)C1=C(C)NC(=O)NC1c1ccc(F)cc1` (stereo not drawn) [Compound 5c, ethyl 4-(4-fluorophenyl)-6-methyl-2oxo-1,2,3,4-tetrahydropyrimidine-5-carboxylate], the “IC50 as anti-oxidant agents” value in data set [2] worked out at 6.261 µM. In data set [1], this compound had an IC50 at 48 h of 7.29 µg/mL (≈ 26.2 µM).

In data set [1], `CCOC(=O)C1=C(C)NC(=S)NC1c1ccccc1F` (stereo not drawn) [Compound 5d, ethyl 4-(2-fluorophenyl)-6-methyl-2-thioxo-1,2,3,4-tetrahydropyrimidine-5-carboxylate] gave an IC50 at 48 h of 25.5 µg/mL (≈ 86.7 µM).

`CCOC(=O)C1=C(C)NC(=S)NC1c1cccc(F)c1` (stereo not drawn) [Compound 5e, ethyl 4-(3-fluorophenyl)-6-methyl-2-thioxo-1,2,3,4-tetrahydropyrimidine-5-carboxylate]: in data set [1], the IC50 at 48 h was found to be 5.35 µg/mL (≈ 18.2 µM). Also, the concentration for half-maximal inhibition (IC50) with HepG2 cells was 5.35 µg/mL (≈ 18.2 µM).

`CCOC(=O)C1=C(C)NC(=S)NC1c1ccc(F)cc1` (stereo not drawn) [Compound 5f, ethyl 4-(4-fluorophenyl)-6-methyl-2thioxo-1,2,3,4-tetrahydropyrimidine-5-carboxylate] returned a melting point of 233 to 235 °C. Half-maximal inhibition in data set [1] (HepG2 cells) (IC50 at 48 h) was put at 18.7 µg/mL (≈ 63.5 µM).

The compound `CCOC(=O)C1=C(C)NC(=S)NC1c1cccc(Cl)c1` (stereo not drawn) [Compound 5h, ethyl 4-(3-chlorophenyl)-6-methyl-2thioxo-1,2,3,4-tetrahydropyrimidine-5-carboxylate] had an IC50 at 48 h in data set [1] of 13 µg/mL (≈ 41.7 µM).
